In patent US20080124376A1, “OCULAR DEVICES AND METHODS OF MAKING AND USING THEREOF” (NOVARTIS AG, priority 2006, published 2008):
Where a name gives a salt, the structure may show the parent alone.

Tests used:
Type in all cases: physicochemical
[1] = Release of Rose Bengal from Nelfilcon lenses in PBS and lysozyme solution
[2] = Drug uptake via absorption into the Dailies matrix from soak solution
Method: Cromolyn sodium was strongly absorbed by the Dailies matrix. The amount absorbed from a 4% concentration (equivalent to an ophthalmic solution) soak solution was on the order of 1 mg. Approximately 100 μg was released passively during a short burst period, leaving some 900 μg for release by trigger mechanism.
Ketotifen fumarate was used at much lower levels in ophthalmic solution (0.025%) than cromolyn sodium, which was reflected in the uptake experiments. Ketotifen fumarate was absorbed from a 0.025% solution into the lens at a level of 35 μg, with a modest amount released during a short burst period, leaving approximately 30 μg retained in the matrix. This is a very significant payload in relation to daily requirements.

[3] = Passive diffusion release from drug-loaded lens / Nelfilcon membrane discs
Method: Cromolyn sodium was strongly absorbed by the […] matrix. The amount absorbed from a 4% concentration (equivalent to an ophthalmic solution) soak solution was on the order of 1 mg. Approximately 100 μg was released passively during a short burst period, leaving some 900 μg for release by trigger mechanism. […] A mixture of Nelfilcon and cromolyn sodium was polymerised to form a membrane, and 1.5 cm diameter discs were cut out and the release profile examined. The release profile of the directly loaded and the absorbed drug described above were compared. Direct loading levels were much lower (approx. 20 μg per lens) than the 1 mg per lens absorbed from a 4% solution. […] Ketotifen fumarate was used at much lower levels in ophthalmic solution (0.025%) than cromolyn sodium, which was reflected in the uptake experiments. Ketotifen fumarate was absorbed from a 0.025% solution into the lens at a level of 35 μg, with a modest amount released during a short burst period, leaving approximately 30 μg retained in the matrix. This is a very significant payload in relation to daily requirements. […] A mixture of Nelfilcon and ketotifen fumarate was polymerised to form a membrane, and 1.5 cm diameter discs were cut out and the release profile examined. The release profile of the directly loaded and the absorbed drug described above were compared. As with cromolyn sodium, the matrix distribution of the drug loaded directly into the polymer matrix produced differences in release behaviour compared to the absorbed drug.

[4] = Trigger release in vortex eye model (in vitro in-eye release model); settings: for triggered release: in eye model (vortex); for trigger release following passive diffusion: drug loaded via absorption into Dailies matrix
Method: The vortex model is the in vitro in-eye release model described in commonly owned copending US Patent Application Publication No. 2006/0251696 A1 (herein incorporated by reference in its entirety). The experiment is carried out as follows. A contact lens is first blotted dry and immediately is carefully placed into 100 microliter of an extraction medium in an tube (e.g., a centrifuge tube, a scintillation vial, or preferably an Eppendorf microtube) and the microtube is agitated for fifteen seconds using, e.g., a Vibrex vortex mixer. At the end of one hour period, the tube is again agitated using, e.g., a Vibrex vortex mixer, for a further fifteen seconds. The extraction medium is removed from the Eppendorf microtube and 100 microliter of a fresh extraction medium is added. Extraction samples are stored at 25° C. between agitation procedures. The concentration of a guest material extracted out of a lens can be determined according to any methods known to a person skilled in the art.

[5] = Direct loading of drug into the Nelfilcon macromer (loading level); settings: drug loaded directly into Nelfilcon macromer
Method: A mixture of Nelfilcon and cromolyn sodium was polymerised to form a membrane, and 1.5 cm diameter discs were cut out and the release profile examined. The release profile of the directly loaded and the absorbed drug described above were compared. Direct loading levels were much lower (approx. 20 μg per lens) than the 1 mg per lens absorbed from a 4% solution.

[6] = Aqueous passive and agitated release from ASM981-loaded Nelfilcon membrane; settings: membrane of 1% ASM981 in Nelfilcon
Method: The addition of Pimecrolimus (SDZ ASM981), which is synthesized by Novartis Pharma, in solution form to Nelfilcon macromer increases the liquid content of the macromer. Simple addition of the ASM981 consequently diluted the macromer and photopolymerisation produced wet structurally incoherent product. A membrane composed of 1% ASM981 was prepared by adding 1 g of the ASM981 solution to 5 g of nelfilcon macromer, vortexing for approximately 5 minutes, and removing the lid of the vial to remove excess water. The mass of the ASM981-loaded macromer was allowed to return to its original 5 g. This was conveniently achieved by leaving the mixture overnight on a flatbed shaker under a nitrogen blanket. The mixture was then placed in a membrane mould and polymerised under a static UV lamp. The mixture was successfully polymerised to form a coherent membrane, and the resultant membrane was opaque in appearance.

[7] = Release of hyaluronan from Nelfilcon matrix in artificial lacrimal solution
Method: Using the techniques above, a mixture of Nelfilcon and varying amounts of hyaluronan was polymerised to form a membrane. The amount of hyaluronan loaded into the Nelfilcon macromer was 2, 6.5, and 40 mg hyaluronan/g nelfilcon (30% by weight aqueous solution). The hyaluronan used was approximately 50 kDa, 100 kDa, and 1 million Da.
The release of hyaluronan from the membrane was investigated by varying the amount and length of the hyaluronan incorporated into the matrix. Release studies were performed by placing each lens in a solution of 5 mL of artificial lacrimal solution at 35° C.

[8] = Heat stability of Nelfilcon lens with hyaluronan; settings: lens in 6.5 mg/mL hyaluronan solution, pH 11, 120° C. for 40 minutes; FIG. 3
Method: Heat stability studies were also performed on the membranes. A lens prepared from 6.5 mg/mL loading of 1 M Da hyaluronan was placed in a tube of 6.5 mg/mL solution of hyaluronan at a pH of 11. The tube was sealed with a total volume of 0.8 mL, and the solution was heated at 120° C. for 40 minutes.

[9] = drug loaded directly into Nelfilcon macromer

Molecule: O=C([O-])c1c(Cl)c(Cl)c(Cl)c(Cl)c1-c1c2cc(I)c(=O)c(I)c-2oc2c(I)c([O-])c(I)cc12.[Na+].[Na+] [Rose Bengal]
- stability of loaded lens in saline solutions ([1]; Nelfilcon lens loaded with Rose Bengal): stable in saline solutions for extended periods of time
- release in PBS solution with no lysozyme ([1]; Nelfilcon lens, approximately minute 150, FIG. 4): little to no Rose Bengal was released
- release in a solution of lysozyme ([1]; Nelfilcon lens, from minute zero, FIG. 4): released steadily

Molecule: O=C(O)c1cc(=O)c2c(OCC(O)COc3cccc4oc(C(=O)O)cc(=O)c34)cccc2o1 [Cromolyn sodium]
- amount absorbed from soak solution ([2]; 4% concentration soak solution): ~1 mg
- amount released passively during a short burst period ([3]; drug absorbed into Dailies matrix from 4% solution): Approximately 100 μg
- amount left for release by trigger mechanism ([3]; drug absorbed into Dailies matrix from 4% solution, after burst): ~900 µg
- passive release ([3]; drug loaded directly into Nelfilcon macromer, 1.5 cm discs): virtually zero passive release
- triggered release [4, 9]: very significant triggered release
- trigger release following passive diffusion ([4]; vortex eye model): significant release
- direct loading level [5]: approx. 20 μg per lens

Molecule: CC[C@@H]1/C=C(\C)C[C@H](C)C[C@H](OC)[C@H]2O[C@@](O)(C(=O)C(=O)N3CCCC[C@H]3C(=O)O[C@H](/C(C)=C/[C@@H]3CC[C@H](Cl)[C@H](OC)C3)[C@H](C)[C@@H](O)CC1=O)[C@H](C)C[C@@H]2OC [ASM981, Pimecrolimus]
- aqueous passive and agitated release [6]: no release was observed

Molecule: CN1CCC(=C2c3ccccc3CC(=O)c3sccc32)CC1 [Ketotifen fumarate]
- amount absorbed into the lens ([2]; 0.025% solution): 35 µg
- amount released during a short burst period ([3]; drug absorbed into Dailies matrix from 0.025% solution): modest amount
- amount retained in the matrix ([3]; drug absorbed into Dailies matrix from 0.025% solution, after burst): approximately 30 μg
- time for passive diffusion to come to equilibrium [3, 9]: three
- effect of albumin on trigger release ([4]; drug absorbed into Dailies matrix, albumin): little effect
- effect of positively charged proteins such as lysozyme on trigger release ([4]; drug absorbed into Dailies matrix, lysozyme): significant enhanced effect
- triggered release [4, 9]: very effective further release
- effect of positively charged tear protein (lysozyme) on trigger release ([4]; drug loaded directly into Nelfilcon macromer, vortex eye model): enhanced
- trigger release following passive diffusion ([4]; vortex eye model): enhanced triggered release susceptibility

Molecule: hyaluronan
- effect of increasing the amount of hyaluronan on release ([7]; 2, 6.5, 40 mg hyaluronan/g nelfilcon, FIG. 2): significantly affects the release

Molecule: hyaluronan [1 M Da hyaluronan]
- release pattern (release rate) ([7]; loading 6.5 mg HA/g nelfilcon, 5 mL artificial lacrimal solution, 35° C., FIG. 1): relatively constant release rate from 2 to 48 hours
- heat stability: release over time after heating [8]: release curve is similar to that of the release of hyaluronan from the matrix that is not heated
